Results on 5 compounds are retold here after publication PMC9706574, “A Versatile and Sustainable Multicomponent Platform for the Synthesis of Protein Degraders: Proof-of-Concept Application to BRD4-Degrading PROTACs” (Journal of Medicinal Chemistry, 2022).

The structures appear in SMILES notation. In brackets after ≈: the same amount, converted by molar mass. Marks after values point to notes of the source that are not given here.

Data set [1] can be described thus: Metabolic stability in mouse liver microsomes (MLM). It is filed as in vitro ADME. In general terms: Liver microsomes are a subcellular fraction often used to study metabolism.
Description: To this aim, we evaluated the metabolic stability of the five selected PROTACs in mouse liver microsomes (MLM).
Mouse liver microsomes (MLM) (pooled male mouse CD-1, protein concentration: 20 mg/mL) were purchased from Corning B.V. Life Sciences (Amsterdam, The Netherlands). The standard incubation mixture (250 μL final volume) was carried out in a 50 mM Tris (tris[hydroxymethyl]aminomethane) buffer (pH 7.4) containing 150 mM KCl, 1.5 mM, 3.3 mM MgCl2, 1.3 mM NADPNa2, 3.3 mM glucose 6-phosphate, 0.4 units/mL glucose 6-phosphate dehydrogenase, acetonitrile as cosolvent (1% of total volume), and the substrate (50 μM). After pre-equilibration of the mixture, an appropriate volume of MLM suspension was added to give a final protein concentration of 1.0 mg/mL. The mixture was shaken for 60 min at 37 °C. Control incubations were carried out without the presence of an NADPH-regenerating system or microsomes. Each incubation was stopped by the addition of 250 μL of ice-cold acetonitrile, vortexed, and centrifuged at 13 000 rpm for 5 min. The supernatants were analyzed by LC-UV.
A short description of data set [2]: Thermodynamic aqueous solubility. It is filed as physicochemical. As to the method: Saturated solutions were prepared by dissolving the tested compounds in 0.1 M phosphate-buffered saline (pH = 7.4) or 0.01 N HCl solutions and sonicated for 30 s. After equilibration on an orbital shaker at 25 °C for 2 h, the solutions were centrifuged at 13 000 rpm for 5 min and filtered through a 0.2 μm regenerated cellulose (RC) syringe filter. A 400 μL aliquot of each filtrate was diluted with 100 μL of acetonitrile and analyzed by LC-UV. When the measured peak area was out of the calibration range (5–100 μM), the sample was further diluted in water–acetonitrile 1:1 mixture.

Details of data set [3]: method as in PMID 33026811. Conditions: physiological pH, in 3 h; cited from earlier work.
On the set-up of data set [4]: method as in PMID 28378579. As to conditions: cited from earlier work.
Another data set concerns the target T1, BRD4 (Homo sapiens, UniProt O60885).
T1 construct: endogenous in cells; host or cells: MDA-MB-231
Kind of data set: BRD4 degradation by Western blot analysis in MDA-MB-231 cells. It is filed as cell-based. As to conditions: for dose-response of BRD4 degradation (in words): 100 nM to 10 μM; for dose-response of BRD4 degradation (in words) / effect of cotreatment with proteasome inhibitor bortezomib on BRD4 degradation: 8 h; for effect of cotreatment with proteasome inhibitor bortezomib on BRD4 degradation: 1 μM compound + 5 nM bortezomib; for BRD4 degradation in time-course experiments (in words): 1 μM, 4 up to 24 h. As for the experimental part:
In Vitro Biological Validation of PROTACs and Preliminary Assessment of Thermodynamic Aqueous Solubility and Metabolic Stability of Selected BRD4-Degrading PROTACs. With the aim of proving the utility of our platform and the compatibility of the substructures accessible by the MCR strategy with a proximity-based degradation, the ability of our PROTAC candidates to effectively act as BRD4 degraders was tested in the human breast cancer cell line MDA-MB-231, known to express detectable levels of this protein.
The human breast adenocarcinoma MDA-MB-231 cell line was cultured in DMEM (Sigma-Aldrich) supplemented with 10% fetal bovine serum (FBS), 1% glutamine, and 1% penicillin/streptomycin. For Western blot analysis, […] cells/well were plated into 12-well plates containing DMEM complete growth medium, to be treated with the synthesized compounds, at the indicated concentrations, for different time lengths. After treatments, cells were scraped and lysed to obtain protein extract using RIPA lysis buffer supplemented with protease (PIC, Merck-Millipore) and phosphatase inhibitors (NaF 1 M, Na3VO4 1 M, PMSF […], Sigma-Aldrich). Cells lysates were centrifuged at 13 000 rpm for 10 min at 4 °C to remove membranes and insoluble fractions. Protein quantification of the supernatant fraction was performed with Braford protein assay (Sigma-Aldrich). […] aliquots of protein extracts were used for 12% SDS-PAGE. After transfer into nitrocellulose membranes, BRD4 and tubulin protein levels were evaluated by immunoblotting using a rabbit polyclonal anti-BRD4 (Bethyl Laboratories) and a mouse monoclonal α-tubulin (Sigma-Aldrich) IgG as primary antibodies and an antirabbit or antimouse HRP-conjugated secondary antibody (Bio-Rad Laboratories). Protein levels were detected by chemiluminescent conversion of the HRP substrate LumiGLO (Thermo Fisher Scientific) using the ChemiDoc imaging system (Bio-Rad). Band densitometry was assessed, normalized to α-tubulin immunoreactive bands, and reported as percentage of the 0.3% DMSO control lane.

[5] abbreviates: 0.01 N HCl solution, HCl 0.01 N, pH 2.0, 25 °C.
[6] abbreviates: phosphate-buffered saline, PBS 0.1 M, pH 7.4, 25 °C.
Where [7] appears, read: 8 h treatment, MDA-MB-231 cells, from Western blot densitometry.

For orientation: melting point means the temperature of the solid-liquid transition. Broadly, the thermodynamic solubility is solubility found after equilibrating the solid with the medium. On to `Cc1sc2c(c1C)C(c1ccc(Cl)cc1)=N[C@@H](CC(=O)OCC(=O)NCCCCOc1cccc3c1C(=O)N(C1CCC(=O)NC1=O)C3=O)c1nnc(C)n1-2` (stereo partly drawn) [Compound 37, 2-((4-((2-(2,6-Dioxopiperidin-3-yl)-1,3-dioxoisoindolin-4-yl)oxy)butyl)amino)-2-oxoethyl2-((S)-4-(4-chlorophenyl)-2,3,9-trimethyl-6H-thieno[3,2-f][1,2,4]triazolo[4,3-a][1,4]diazepin-6-yl)acetate], for which the melting point is 105.2 to 107 °C (dec.). The “metabolic stability in MLM (in words)” value in data set [1] is “highly stable in MLM”. In data set [2] (setting [5]), the solubility (thermodynamic) at 2 h turned out to be 18 µM (≈ 14.2 µg/mL). In addition, in data set [2] (pH 7.4), the “solubility at physiological pH (in words)” value is “the least soluble”. The thermodynamic solubility at 2 h in data set [2] (setting [6]) was 8 µM (≈ 6.29 µg/mL).

As to `O=C1CCC(N2C(=O)c3ccccc3C2=O)C(=O)N1` (centres unmarked) [thalidomide], the hydrolytic degradation entry in data set [3] is on record as “about 30%”.

For `Cc1sc2c(c1C)C(c1ccc(Cl)cc1)=N[C@@H](CC(=O)NCCCCNC(=O)COc1cccc3c1C(=O)N(C1CCC(=O)NC1=O)C3=O)c1nnc(C)n1-2` (some centres unmarked) [dBET1], the “Thermodynamic aqueous solubility, HCl 0.01 N (pH = 2.0)” value in data set [4] (pH 2.0, literature data ref 58) is 171 ^c μM. Besides, in data set [4] (pH 7.4, literature data ref 58), the “Thermodynamic aqueous solubility, PBS 0.1 M (pH = 7.4)” value is on record as 60 ^c μM.

As usually defined, the DC50 is the concentration giving 50% degradation. A higher DC50 goes with a less potent degrader. By Dmax is commonly meant the largest share of the target that was removed. For `Cc1sc2c(c1C)C(c1ccc(Cl)cc1)=N[C@@H](CC(=O)NCC(=O)NCCCOc1cccc3c1C(=O)N(C1CCC(=O)NC1=O)C3=O)c1nnc(C)n1-2` (stereo partly drawn) [Compound 27, 2-((S)-4-(4-Chlorophenyl)-2,3,9-trimethyl-6H-thieno[3,2-f][1,2,4]triazolo[4,3-a][1,4]diazepin-6-yl)-N-(2-((3-((2-(2,6-dioxopiperidin-3-yl)-1,3-dioxoisoindolin-4-yl)oxy)propyl)amino)-2-oxoethyl)acetamide], the melting point is 221.3 to 223.6 °C (dec.). Also, at BRD4 (MDA-MB-231 cells), the “dose-response of BRD4 degradation (in words)” value was “showed dose-dependency” and the “BRD4 degradation in time-course experiments (in words)” value was “decreased expression of BRD4 at all the time-points tested”. For the same compound, the “effect of cotreatment with proteasome inhibitor bortezomib on BRD4 degradation” value on BRD4 was “abolish BRD4 degradation”. Moreover, the DC50 on BRD4 (setting [7]) was 97.1 nM. Besides, the maximal degradation (Dmax) on BRD4 (8 h treatment, MDA-MB-231 cells, from Western blot densitometry, read-out: Dmax (maximal % of reduction toward DMSO control lane)) was determined as 88%. Also, the solubility (thermodynamic) at 2 h in data set [2] (setting [5]) is 145 µM (≈ 112 µg/mL). In addition, in data set [2] (setting [6]), the thermodynamic solubility at 2 h was determined as 48 µM (≈ 37 µg/mL).

For the compound `Cc1sc2c(c1C)C(c1ccc(Cl)cc1)=N[C@@H](CC(=O)NCC(=O)NCCCCCOc1cccc3c1C(=O)N(C1CCC(=O)NC1=O)C3=O)c1nnc(C)n1-2` (stereo partly drawn) [Compound 29, 2-((S)-4-(4-Chlorophenyl)-2,3,9-trimethyl-6H-thieno[3,2-f][1,2,4]triazolo[4,3-a][1,4]diazepin-6-yl)-N-(2-((5-((2-(2,6-dioxopiperidin-3-yl)-1,3-dioxoisoindolin-4-yl)oxy)pentyl)amino)-2-oxoethyl)acetamide], the melting point is 223.4 to 225.1 °C (dec.). Further, at BRD4 (MDA-MB-231 cells), the “dose-response of BRD4 degradation (in words)” value was “degradation was observed only at 1 and 3 μM concentrations”; the “BRD4 degradation in time-course experiments (in words)” value is recorded as “decreased expression of BRD4 at all the time-points tested”. Also, the “effect of cotreatment with proteasome inhibitor bortezomib on BRD4 degradation” value at BRD4 is “abolish BRD4 degradation”. The DC50 on BRD4 (setting [7]) came out at 184 nM. The thermodynamic solubility at 2 h in data set [2] (setting [5]) came out at 39 µM (≈ 31.2 µg/mL). The solubility (thermodynamic) at 2 h in data set [2] (setting [6]) is 15 µM (≈ 12 µg/mL).
